From ChEMBL document CHEMBL1126386, “-alkoxyphenol leukotriene B4 receptor antagonists: effect of a chroman carboxylic acid” (Bioorg Med Chem Lett, 1992) come the findings set out here.

In one experiment the test system is Cavia porcellus. The experiment is described as follows: Compound was tested for antagonizing effect of LTB4-induced gas trapping in the guinea pig when administered intravenously. The following applies: iv. The class given is functional.
A further experiment addresses Leukotriene B4 receptor (Homo sapiens, UniProt Q9NPC1+Q15722). The experiment is described as follows: Inhibition of LTB4-induced CD11b/CD18 integrin up-regulation in human neutrophils. Format: functional.

As usually defined, the ED50 is the midpoint of the dose-response relation. Read a low ED50 as an effect at a small dose. A word on the IC50: it is the concentration needed to halve the response being measured. A higher IC50 goes with weaker potency. Molecule `CCCc1c(OCCCOc2cc(O)c(OCC)cc2CC)ccc2c1OC(C(=O)O)CC2` (configuration not stated) showed an ED50 with Cavia porcellus of 0.012 mg/kg. Also, the IC50 against Leukotriene B4 receptor came to 195 nM.
